Source: ChEMBL document CHEMBL1132734, “2-Nitro analogues of adenosine and 1-deazaadenosine: synthesis and binding studies at the adenosine A1, A2A and A3 receptor subtypes” (Bioorg Med Chem Lett, 2000)

Assays:
Adenosine receptor A3 = target: T1, Adenosine receptor A3 (Homo sapiens, UniProt P0DMS8); experiment: Binding affinity for Adenosine A3 receptor expressed in HEK 293 cells by displacing i[125I]-ABMECA; type: cell-based, HEK293
T1 sequence (P0DMS8 whole entry): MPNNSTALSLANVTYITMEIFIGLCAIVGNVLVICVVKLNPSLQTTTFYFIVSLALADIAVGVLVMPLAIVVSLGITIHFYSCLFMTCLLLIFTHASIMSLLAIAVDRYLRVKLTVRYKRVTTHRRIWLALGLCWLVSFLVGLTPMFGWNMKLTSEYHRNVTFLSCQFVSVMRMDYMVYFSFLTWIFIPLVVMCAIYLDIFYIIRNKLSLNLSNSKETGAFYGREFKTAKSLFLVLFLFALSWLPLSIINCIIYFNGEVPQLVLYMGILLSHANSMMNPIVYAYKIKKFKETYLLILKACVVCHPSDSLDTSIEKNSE

Adenosine receptor A1 = target: T2, Adenosine receptor A1 (Rattus norvegicus, UniProt P25099); experiment: Binding affinity for Adenosine A1 receptor of rat cortical membrane by displacing [3H]DPCPX
T2 sequence (P25099 whole entry): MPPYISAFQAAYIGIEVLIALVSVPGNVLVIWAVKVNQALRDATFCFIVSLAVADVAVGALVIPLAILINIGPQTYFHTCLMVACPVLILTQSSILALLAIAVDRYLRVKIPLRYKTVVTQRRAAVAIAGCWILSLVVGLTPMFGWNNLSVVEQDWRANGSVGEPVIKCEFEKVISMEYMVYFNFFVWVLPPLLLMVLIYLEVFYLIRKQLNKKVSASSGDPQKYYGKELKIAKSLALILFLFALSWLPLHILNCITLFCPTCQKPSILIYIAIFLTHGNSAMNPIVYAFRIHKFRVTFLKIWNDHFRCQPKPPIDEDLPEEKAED

Adenosine receptor A2a = Adenosine receptor A2a (Rattus norvegicus, UniProt P30543); experiment: Binding affinity for adenosine A2A receptor of rat striatal membrane by displacing [3H]-ZM 241385; parameters: species or system Striatum
Adenosine receptor A2a, sequence (P30543 whole entry): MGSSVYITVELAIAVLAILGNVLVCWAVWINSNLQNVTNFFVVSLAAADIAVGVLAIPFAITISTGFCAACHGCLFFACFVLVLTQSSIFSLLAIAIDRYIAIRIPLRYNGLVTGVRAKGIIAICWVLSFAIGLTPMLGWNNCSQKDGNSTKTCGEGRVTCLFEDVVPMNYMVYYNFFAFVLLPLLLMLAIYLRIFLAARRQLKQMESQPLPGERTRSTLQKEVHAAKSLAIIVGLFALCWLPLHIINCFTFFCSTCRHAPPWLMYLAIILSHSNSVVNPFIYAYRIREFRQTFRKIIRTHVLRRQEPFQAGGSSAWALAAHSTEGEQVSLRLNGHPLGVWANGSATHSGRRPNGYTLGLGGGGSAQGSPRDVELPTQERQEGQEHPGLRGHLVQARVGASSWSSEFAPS

[1] = target: Adenosine receptor A2a (Rattus norvegicus) (UniProt P30543); experiment: Binding affinity for adenosine A2A receptor of rat striatal membrane by displacing [3H]ZM-241385
Adenosine receptor A2a (Rattus norvegicus), sequence (P30543 whole entry): as above

Ki (Adenosine receptor A3) [nM]	Ki (Adenosine receptor A1) [nM]	Ki (Adenosine receptor A2a) [nM]	Displacement [1] [%]	SMILES
12	138	1440		O=[N+]([O-])c1nc(NCc2cccc(I)c2)c2ncn([C@@H]3O[C@H](CO)[C@@H](O)[C@H]3O)c2n1
216	646	437		Nc1cc([N+](=O)[O-])nc2c1ncn2[C@@H]1O[C@H](CO)[C@@H](O)[C@H]1O
340	52.6		52	O=[N+]([O-])c1cc(NC2CCCC2)c2ncn([C@@H]3O[C@H](CO)[C@@H](O)[C@H]3O)c2n1
163			20	O=[N+]([O-])c1nc(NCc2ccccc2)c2ncn([C@@H]3O[C@H](CO)[C@@H](O)[C@H]3O)c2n1
222	47.1	3510		O=[N+]([O-])c1nc(NC2CCCC2)c2ncn([C@@H]3O[C@H](CO)[C@@H](O)[C@H]3O)c2n1
9.8	110	208		O=[N+]([O-])c1cc(NCc2cccc(I)c2)c2ncn([C@@H]3O[C@H](CO)[C@@H](O)[C@H]3O)c2n1
35.8	1160		9	CONc1nc([N+](=O)[O-])nc2c1ncn2[C@@H]1O[C@H](CO)[C@@H](O)[C@H]1O
202	344	286		Nc1nc([N+](=O)[O-])nc2c1ncn2[C@@H]1O[C@H](CO)[C@@H](O)[C@H]1O
